# US20250090875A9, “IMMUNOSTIMULATORY COMPOUNDS AND CONJUGATES” (Seagen Inc., priority 2021, published 2025)
# “Also recorded” adds a separate entry of the source.
# Legend:
# primary human PBMCs = assay: Cytokine induction in primary human PBMCs by small molecule TLR7/8 agonists (Luminex); format: cell-based; details: for potency and activity of cytokine induction (IL6, TNFα, MCP1, IP10): ranking; for potency to activate human PBMCs (IL6, IL1b, MIP1b, TNFα): compared with S18a, FIG. 29
# Procedure: This example covers dose dependent human immune cell activation by small molecule TLR7/8 agonists. Primary human PBMCs were isolated from peripheral whole blood from human donors and were subjected to treatment with increasing concentrations of the agonists diluted in PBS. Cell culture supernatants were harvested 24 h after treatment and analyzed for induction of cytokines via multiplex ELISAs (Luminex).
# Several small molecule TLR7/8 agonists were assessed for their ability to activate human immune cells in a dose dependent manner. Primary human PBMCs were isolated from peripheral whole blood from human donors and were subjected to treatment with increasing concentrations of the agonists diluted in PBS. 24 h after treatment cell culture supernatants were harvested and analyzed for induction of cytokines via multiplex ELISAs (Luminex).
# Renca tumors = assay: Renca kidney carcinoma model in Balb/c mice; format: in vivo, mouse; details: targeted or non-targeted conjugates, N1 vs C4 linkage, different linkers, with or without PEG
# Procedure: The difference in anti-tumor activity of the S18a and S18b conjugates was also assessed in the Renca kidney model. In this model, mice bearing Renca tumors were treated q7dx3 when tumors reached ˜100 mm^3 as indicated, and followed for mean group tumor growth (FIG. 14, top) and survival (FIG. 14, bottom) over time.
# This example covers cancer treatment with EphA2 targeted TLR agonists. […] Balb/c mice were implanted with Renca tumor cells and when cells reached 100 mm^3 they were treated Q7dx3 treatments with 2.4 mg/kg of the indicated IDC, either non targeting isotype or an EphA2 targeting mAb.
# hTLR7 = target: T1, hTLR7 (Homo sapiens, UniProt Q9NYK1); assay: HEK Blue hTLR7 cell assay of free TLR7/8 agonists; format: cell-based; details: HEK Blue hTLR7 cells, free agonist
# T1 construct: expressed in transfected cells; host or cells: HEK Blue hTLR7 cells
# T1 sequence (Q9NYK1 27-1049): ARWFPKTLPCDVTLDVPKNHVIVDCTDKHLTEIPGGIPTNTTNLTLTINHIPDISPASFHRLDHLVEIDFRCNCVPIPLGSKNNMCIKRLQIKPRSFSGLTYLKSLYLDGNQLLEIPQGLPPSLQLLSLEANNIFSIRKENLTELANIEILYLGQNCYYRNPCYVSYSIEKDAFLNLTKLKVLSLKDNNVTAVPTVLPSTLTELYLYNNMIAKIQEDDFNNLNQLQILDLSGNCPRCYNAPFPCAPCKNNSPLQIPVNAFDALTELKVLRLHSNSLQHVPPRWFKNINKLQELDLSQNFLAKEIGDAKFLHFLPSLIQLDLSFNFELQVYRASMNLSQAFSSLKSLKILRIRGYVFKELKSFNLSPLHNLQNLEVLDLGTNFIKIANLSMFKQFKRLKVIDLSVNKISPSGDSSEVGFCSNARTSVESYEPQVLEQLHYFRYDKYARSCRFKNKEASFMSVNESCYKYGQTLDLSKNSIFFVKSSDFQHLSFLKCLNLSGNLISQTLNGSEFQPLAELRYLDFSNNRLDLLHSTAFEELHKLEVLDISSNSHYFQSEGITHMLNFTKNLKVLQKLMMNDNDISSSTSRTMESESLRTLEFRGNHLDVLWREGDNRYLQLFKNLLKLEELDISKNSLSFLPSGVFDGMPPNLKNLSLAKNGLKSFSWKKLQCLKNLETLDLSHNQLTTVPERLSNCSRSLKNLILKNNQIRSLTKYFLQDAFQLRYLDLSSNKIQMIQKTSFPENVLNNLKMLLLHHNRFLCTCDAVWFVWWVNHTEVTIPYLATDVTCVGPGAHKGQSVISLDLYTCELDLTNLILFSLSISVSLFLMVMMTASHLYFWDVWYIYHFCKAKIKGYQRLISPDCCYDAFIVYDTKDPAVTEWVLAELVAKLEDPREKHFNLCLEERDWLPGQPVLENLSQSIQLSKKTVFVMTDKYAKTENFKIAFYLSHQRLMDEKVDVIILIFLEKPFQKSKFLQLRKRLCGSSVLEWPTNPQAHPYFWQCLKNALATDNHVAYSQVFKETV
# Procedure: This example covers toll-like receptor 7 (TLR7) and toll-like receptor 8 (TLR8) selectivity of imidazoquinoline agonists. Assessment of TLR7 and TLR8 selectivity for the free TLR7/8 agonists was performed using HEK Blue hTLR7 and hTLR8 cells over a large dose range of compounds. […] Activities were determined based on calculated EC50 (in μM) in each cell line, and are summarized in TABLE 4 below, with columns providing targets and rows providing compounds.
# CT26 tumors = format: in vivo; details: targeted ADC, intraperitoneal, every 7 days, 3 doses; for mice surviving at the end of the study: 6 mice per group
# Text: This example covers in vivo assessments of anti-tumor activity of ADCs with TLR7/8 agonists. An in vivo syngeneic system was used to assess the ability of the ADCs having TLR ⅞ agonists as the payload to induce immune responses and drive an anti-tumor immune response using a subcutaneous, heterotopic mouse colon carcinoma model (a CT26 system). Female Balb/c mice were implanted with 1×10^5 CT26 cells sub-cutaneously in the flank on day 0. When mean tumor size of 100 mm^3 (measured using the formula: Volume (mm^3)=0.5*Length*Width^2 where length is the longer dimension) was reached, the mice were randomized into treatment groups of 6 mice per group. Animals were then treated intraperitoneally with the indicated treatment every 7 days, for 3 doses total. Stock concentrations of the ADCs were diluted to the appropriate concentration and injected into animals in 100 μL volumes. Tumor length and width and mouse weights were measured throughout the study and tumor volume was calculated using the formula above. Animals were followed until tumor volume reached 1000 mm^3, when animals were then euthanized.
compound,measurement,setting,value
CCCCc1nc2c(N)nc3cc(C(=O)OC)ccc3c2n1Cc1ccc(CN)cc1 [S8a],"concentration eliciting cytokine responses (IFNg, IL1β, MIP1β, TNFα)","primary human PBMCs; single donor, 24 h, FIG. 1",< 0.1 µM
"CCCCc1nc2c(N)nc3cc(C(=O)O)ccc3c2n1Cc1ccc(C[N+](C)(C)Cc2ccc(O[C@H]3O[C@H](CO)[C@@H](O)[C@H](O)[C@@H]3O)c(NC(=O)CCNC(=O)CCN3C(=O)C=CC3=O)c2)cc1 [Compound 14, N-(4-((4-amino-2-butyl-7-carboxy-1H-imidazo[4,5-c]quinolin-1-yl)methyl)benzyl)-1-(3-(3-(3-(2,5-dioxo-2,5-dihydro-1H-pyrrol-1-yl)propanamido)propanamido)-4-(((2R,3S,4S,5S,6R)-3,4,5-trihydroxy-6-(hydroxymethyl)tetrahydro-2H-pyran-2-yl)oxy)phenyl)-N,N-dimethylmethanaminium]","anti-tumor activity (tumor volume, survival)",Renca tumors,greatest potency
CCCCc1nc2c(N)nc3cc(C(=O)OC)ccc3c2n1Cc1ccc(CN2CCCC2)cc1 [S65a],potency to induce MCP1 and IP10,"primary human PBMCs; free drug, FIG. 30",enhanced potency to induce MCP1 and IP10 compared to compounds S18a
same,"potency and activity of cytokine induction (IL6, TNFα, MCP1, IP10)","primary human PBMCs; free drug, FIG. 30",other two most potent compounds
CCCCc1nc2c(N)nc3cc(C(=O)O)ccc3c2[nH]1 [S82b],"potency and activity of cytokine induction (IL6, TNFα, MCP1, IP10)","primary human PBMCs; free drug, FIG. 30",greater activity than compound S84a
CCCCc1nc2c(N)nc3cc(C(=O)OC)ccc3c2n1Cc1ccc(CN2CCOCC2)cc1 [S81a],"maximal level of IL6, MCP1 and IP10","primary human PBMCs; free drug, FIG. 30","same maximal level of IL6, MCP1 and IP10 as the other compounds"
same,"maximum level of IL10, IL1b or TNFα","primary human PBMCs; free drug, FIG. 30",not able to reach the same maximum level
same,"potency and activity of cytokine induction (IL6, TNFα, MCP1, IP10)","primary human PBMCs; free drug, FIG. 30",greater activity than compound S82a
same,TLR7 vs TLR8 binding profile,primary human PBMCs; inferred from the cytokine profile,TLR7 vs TLR8 skewed binding profile
CCCCc1nc2c(N)nc3cc(C(=O)OC)ccc3c2n1CCc1ccc(CN)cc1 [S76a],EC50,hTLR7,3.44 µM
"CCCCc1nc2c(N)nc3cc(C(=O)O)ccc3c2n1Cc1ccc(C[N+](C)(C)Cc2ccc(O[C@H]3O[C@H](CO)[C@@H](O)[C@H](O)[C@@H]3O)c(NC(=O)CCNC(=O)[C@H](CCCCNC(=O)CCOCCOCCOCCOCCOCCOCCOCCOCCOCCOCCOCCOC)NC(=O)CCN3C(=O)C=CC3=O)c2)cc1 [Compound 9, N-(4-((4-amino-2-butyl-7-carboxy-1H-imidazo[4,5-c]quinolin-1-yl)methyl)benzyl)-1-(3-((S)-44-(3-(2,5-dioxo-2,5-dihydro-1H-pyrrol-1-yl)propanamido)-38,45-dioxo-2,5,8,11,14,17,20,23,26,29,32,35-dodecaoxa-39,46-diazanonatetracontan-49-amido)-4-(((2R,3 S,4 S, 5 S,6R)-3,4,5-trihydroxy-6-(hydroxymethyl)tetrahydro-2H-pyran-2-yl)oxy)phenyl)-N,N-dimethylmethanaminium]",tumor growth delay and survival,CT26 tumors,potent tumor growth delay and a long-term overall survival benefit
same,"anti-tumor activity (tumor volume, survival)",Renca tumors,greatest potency; also recorded: superior potency
"CCCCc1nc2c(N)nc3cc(C(=O)OC)ccc3c2n1CCCCCNC(=O)OCc1ccc(O[C@H]2O[C@H](CO)[C@@H](O)[C@H](O)[C@@H]2O)c(NC(=O)CCNC(=O)[C@H](CCCCNC(=O)CCOCCOCCOCCOCCOCCOCCOCCOCCOCCOCCOCCOC)NC(=O)CCN2C(=O)C=CC2=O)c1 [Compound 7, Methyl 4-amino-2-butyl-1-(5-((((3-((S)-44-(3-(2,5-dioxo-2,5-dihydro-1H-pyrrol-1-yl)propanamido)-38,45-dioxo-2,5,8,11,14,17,20,23,26,29,32,35-dodecaoxa-39,46-diazanonatetracontan-49-amido)-4-(((2R,3 S,4 S, 5 S,6R)-3,4,5-trihydroxy-6-(hydroxymethyl)tetrahydro-2H-pyran-2-yl)oxy)benzyl)oxy)carbonyl)amino)pentyl)-1H-imidazo[4,5-c]quinoline-7-carboxylate]",tumor growth delay and survival,CT26 tumors,some tumor growth delay over the untreated group
same,mice surviving at the end of the study,CT26 tumors,no animals ultimately survived
CCCCc1nc2c(N)nc3cc(C(=O)OC)ccc3c2n1CCCCCN(C)C [S77a],EC50,hTLR7,2.82 µM
CCCCc1nc2c(N)nc3cc(C(=O)O)ccc3c2n1CC(C)O (centres unmarked) [S5b],"IFNα, IL1β, MIP1β, TNFα induction, C7 carboxylic acid vs parent C7 methyl ester","primary human PBMCs; free drug, FIG. 3",markedly lower potency and activity than its corresponding parent methyl ester compound
COCCc1nc2c(N)nc3cc(C(=O)OC)ccc3c2n1Cc1ccc(CN)cc1 [S78a],EC50,hTLR7,3.78 µM
CCCCc1nc2c(N)nc3cc(C(=O)OC)ccc3c2n1Cc1ccc(CN(CC)CC)cc1 [S83a],"potency to activate human PBMCs (IL6, IL1b, MIP1b, TNFα)",primary human PBMCs; free drug,slightly enhanced potency
same,"potency and activity of cytokine induction (IL6, TNFα, MCP1, IP10)","primary human PBMCs; free drug, FIG. 30",highest maximal cytokine and potency to induce cytokine of all compounds tested
CCCCc1nc2c(N)nc3cc(C(=O)OC)ccc3c2n1Cc1ccc(CN2CCCCC2)cc1 [S85a],"potency to activate human PBMCs (IL6, IL1b, MIP1b, TNFα)",primary human PBMCs; free drug,slightly decreased potency
"CCCCc1nc2c(N)nc3cc(C(=O)O)ccc3c2n1CCCCCNC(=O)OCc1ccc(O[C@H]2O[C@H](CO)[C@@H](O)[C@H](O)[C@@H]2O)c(NC(=O)CCNC(=O)[C@H](CCCCNC(=O)CCOCCOCCOCCOCCOCCOCCOCCOCCOCCOCCOCCOC)NC(=O)CCN2C(=O)C=CC2=O)c1 [Compound 8, 4-amino-2-butyl-1-(5-((((3-((S)-44-(3-(2,5-dioxo-2,5-dihydro-1H-pyrrol-1-yl)propanamido)-38,45-dioxo-2,5,8,11,14,17,20,23,26,29,32,35-dodecaoxa-39,46-diazanonatetracontan-49-amido)-4-(((2R,3 S,4 S, 5 S,6R)-3,4,5-trihydroxy-6-(hydroxymethyl)tetrahydro-2H-pyran-2-yl)oxy)benzyl)oxy)carbonyl)amino)pentyl)-1H-imidazo[4,5-c]quinoline-7-carboxylic acid]",tumor growth delay and survival,CT26 tumors,greatly increased tumor growth delay and survival
"CCCCc1nc2c(N)nc3cc(C(=O)OC)ccc3c2n1Cc1ccc(CNC(=O)OCc2ccc(O[C@H]3O[C@H](CO)[C@@H](O)[C@H](O)[C@@H]3O)c(NC(=O)CCNC(=O)[C@H](CCCCNC(=O)CCOCCOCCOCCOCCOCCOCCOCCOCCOCCOCCOCCOC)NC(=O)CCN3C(=O)C=CC3=O)c2)cc1 [Compound 4, methyl 4-amino-2-butyl-1-(4-(((((3-((S)-44-(3-(2,5-dioxo-2,5-dihydro-1H-pyrrol-1-yl)propanamido)-38,45-dioxo-2,5,8,11,14,17,20,23,26,29,32,35-dodecaoxa-39,46-diazanonatetracontan-49-amido)-4-(((2R,3 S,4 S, 5 S,6R)-3,4,5-trihydroxy-6-(hydroxymethyl)tetrahydro-2H-pyran-2-yl)oxy)benzyl)oxy)carbonyl)amino)methyl)benzyl)-1H-imidazo[4,5-c]quinoline-7-carboxylate]",tumor growth delay and survival,CT26 tumors,some tumor growth delay and survival benefit
same,mice surviving at the end of the study,CT26 tumors,⅙
